IC50 data for 35 compounds are collected here from patent US10322108B2, “N-benzoate group substituted benzopyrroline-2-one derivative and use thereof” (BEIJING HANMI PHARMACEUTICAL CO., LTD., priority 2015, dated 2019).

A word on the IC50: it is the concentration needed to halve the response being measured.

The target of this assay is RORγ-LBD (Homo sapiens (Human), UniProt P51449). As to the kind of experiment: LanthaScreen TR-FRET screening of RORγ-LBD / co-activator (Fluorescein-D22) interaction. A general note: In TR-FRET formats the signal depends on donor and acceptor labels being close together.
Setting [1] is: read-out: IC50 Values, TR-FRET, 2 nM RORγ-LBD, 150 nM Fluorescein-D22 co-activator.

Structures are written as SMILES. Like-named read-outs stand apart in the source and are kept apart here.

Chain of RORγ-LBD (P51449 269-508): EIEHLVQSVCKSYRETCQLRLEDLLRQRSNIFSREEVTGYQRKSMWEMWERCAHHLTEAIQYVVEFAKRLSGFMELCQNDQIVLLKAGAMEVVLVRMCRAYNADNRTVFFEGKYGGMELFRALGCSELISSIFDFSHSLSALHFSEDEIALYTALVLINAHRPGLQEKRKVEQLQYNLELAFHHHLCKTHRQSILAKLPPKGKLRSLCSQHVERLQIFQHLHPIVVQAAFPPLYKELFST

`Cc1cccc2c1/C(=C/c1c(Cl)cccc1C1CC1)C(=O)N2c1ccc(C(=O)O)c(Cl)c1` [Example 24, (trans)-4-(3-(2-chloro-6-cyclopropyl-benzylidene)-4-methylindolin-2-on-1-yl)-2-chloro-benzoic acid] gave an IC50 of 100 to 1000 nM.

`O=C(O)c1ccc(N2C(=O)/C(=C\c3c(Cl)cccc3C3CC3)c3c(-c4ccccc4)cccc32)cc1` [Example 13] returned an IC50 of 100 to 1000 nM. For `COc1cccc2c1/C(=C/c1c(Cl)cccc1Cl)C(=O)N2c1ccc(C(=O)O)cc1` [Example 31, (trans)-4-(3-(2,6-dichloro-benzylidene)-4-methoxyindolin-2-on-1-yl)-benzoic acid], the IC50 lay in the range of 1000 to 10000 nM. For the compound `O=C(O)c1ccc(N2C(=O)/C(=C/c3c(Cl)cccc3C(F)(F)F)c3c(F)cccc32)cc1` [Example 19B, (cis)-4-(3-(2-chloro-6-trifluoromethyl-benzylidene)-4-fluoro-indolin-2-on-1-yl)-benzoic acid], under setting [1], the IC50 was below 100 nM. `COc1cccc(Cl)c1/C=C1\C(=O)N(c2ccc(C(=O)O)cc2)c2cccc(C)c21` [Example 32, (trans)-4-(3-(2-chloro-6-methoxy-benzylidene)-4-methylindolin-2-on-1-yl)-benzoic acid] gave an IC50 of 1000 to 10000 nM.

Turning to `Cc1cccc2c1/C(=C/c1c(Cl)cccc1Cl)C(=O)N2c1ccc(C(=O)O)cc1` [Example 5, (trans)-4-(3-(2,6-dichlorobenzylidene)-4-methylindolin-2-on-1-yl)-benzoic acid], the half-inhibitory concentration (IC50) under setting [1] was below 100 nM. Still for that read-out and setting: the figure for `COc1cccc2c1/C(=C/c1c(Cl)cccc1C1CC1)C(=O)N2c1ccc(C(=O)O)c(O)c1` [Example 8] is below 100 nM. As for `O=C(O)c1ccc(N2C(=O)/C(=C\c3c(F)cccc3Cl)c3c(F)cccc32)cc1` [Example 17A, (trans)-4-(3-(2-chloro-6-fluoro-benzylidene)-4-fluoro-indolin-2-on-1-yl)-benzoic acid], the 50% inhibitory concentration (IC50) is 100 to 1000 nM. On to `Cc1cccc2c1/C(=C/c1c(Cl)cccc1C(C)C)C(=O)N2c1ccc(C(=O)O)c(O)c1` [Example 36, (trans)-4-(3-(2-chloro-6-isopropyl-benzylidene)-4-methylindolin-2-on-1-yl)-2-hydroxybenzolic acid], for which the IC50 under setting [1] is below 100 nM. Regarding `Cc1cccc2c1/C(=C/c1c(Cl)cccc1Br)C(=O)N2c1ccc(C(=O)O)c(O)c1` [Example 7, (trans)-4-(3-(2-chloro-6-bromo-benzylidene)-4-methylindolin-2-on-1-yl)-2-hydroxybenzolic acid], the IC50 under setting [1] was below 100 nM. Turning to `CCCc1cccc(Cl)c1/C=C1/C(=O)N(c2ccc(C(=O)O)cc2)c2cccc(F)c21` [Example 20B, (cis)-4-(3-(2-chloro-6-n-propyl-benzylidene)-4-fluoro-indolin-2-on-1-yl)-benzoic acid], the concentration for half-maximal inhibition (IC50) was in the range of 100 to 1000 nM. As to `O=C(O)c1ccc(N2C(=O)/C(=C/c3c(Cl)cccc3Cl)c3c(F)cccc32)cc1O` [Example 22B, (cis)-4-(3-(2,6-dichloro-benzylidene)-4-fluoro-indolin-2-on-1-yl)-2-hydroxy-benzoic acid], the concentration for half-maximal inhibition (IC50) under setting [1] is below 100 nM. Regarding `Cc1cccc2c1/C(=C/c1c(Cl)cccc1C1CC1)C(=O)N2c1ccc(C(=O)O)c(N)c1` [Example 33], the concentration for half-maximal inhibition (IC50) is 1000 to 10000 nM. Same read-out and setting: the figure for `Cc1cccc(Cl)c1/C=C1\C(=O)N(c2ccc(C(=O)O)cc2)c2cccc(C)c21` [Example 29, (trans)-4-(3-(2-chloro-6-methyl-benzylidene)-4-methylindolin-2-on-1-yl)-benzoic acid] is 100 to 1000 nM. For `CCc1cccc(Cl)c1/C=C1\C(=O)N(c2ccc(C(=O)O)c(O)c2)c2cccc(C)c21` [Example 37, (trans)-4-(3-(2-chloro-6-ethyl-benzylidene)-4-methylindolin-2-on-1-yl)-2-hydroxybenzolic acid], the IC50 under setting [1] was below 100 nM. As to `O=C(O)c1ccc(N2C(=O)/C(=C\c3c(Cl)cccc3Cl)c3c(F)cccc32)cc1O` [Example 22A, (trans)-4-(3-(2,6-dichloro-benzylidene)-4-fluoro-indolin-2-on-1-yl)-2-hydroxy-benzoic acid], the half-maximal inhibitory concentration (IC50) under setting [1] is below 100 nM.

In the case of `O=C(O)c1ccc(N2C(=O)/C(=C\c3c(Cl)cccc3C3CC3)c3c(C4CC4)cccc32)cc1O` [Example 12, (trans)-4-(3-(2-chloro-6-cyclopropyl-benzylidene)-4-cyclopropylindolin-2-on-1-yl)-2-hydroxybenzolic acid], under setting [1], the IC50 is below 100 nM. `O=C(O)c1ccc(N2C(=O)/C(=C/c3c(F)cccc3F)c3c(F)cccc32)cc1` [Example 18B, (cis)-4-(3-(2,6-difluoro-benzylidene)-4-fluoro-indolin-2-on-1-yl)-benzoic acid] returned an IC50 of 1000 to 10000 nM.

Consider `O=C(O)c1ccc(N2C(=O)/C(=C\c3c(Cl)cccc3C3CC3)c3c(F)cccc32)cc1O` [Example 21A, (trans)-4-(3-(2-chloro-6-cyclopropyl-benzylidene)-4-fluoro-indolin-2-on-1-yl)-2-hydroxy-benzoic acid], for which, under setting [1], the IC50 was below 100 nM. `COc1cccc2c1/C(=C/c1c(Cl)cccc1Cl)C(=O)N2c1ccc(C(=O)O)c(O)c1` [Example 11, (trans)-4-(3-(2,6-dichloro-benzylidene)-4-methoxyindolin-2-on-1-yl)-2-hydroxybenzolic acid] displayed an IC50 of 100 to 1000 nM.

Regarding `O=C(O)c1ccc(N2C(=O)/C(=C/c3c(F)cccc3Cl)c3c(F)cccc32)cc1` [Example 17B, (cis)-4-(3-(2-chloro-6-fluoro-benzylidene)-4-fluoro-indolin-2-on-1-yl)-benzoic acid], the IC50 lay in the range of 100 to 1000 nM. `O=C(O)c1ccc(N2C(=O)/C(=C\c3c(Cl)cccc3Cl)c3c(Cl)cccc32)cc1` [Example 23, (trans)-4-(3-(2,6-dichloro-benzylidene)-4-chloro-indolin-2-on-1-yl)-benzoic acid]: the IC50 under setting [1] is below 100 nM.

With `O=C(O)c1ccc(N2C(=O)/C(=C\c3c(Cl)cccc3C(F)(F)F)c3c(F)cccc32)cc1` [Example 19A, (trans)-4-(3-(2-chloro-6-trifluoromethyl-benzylidene)-4-fluoro-indolin-2-on-1-yl)-benzoic acid], the IC50 under setting [1] was below 100 nM. Regarding `Cc1cccc2c1/C(=C/c1c(Cl)cccc1C1CC1)C(=O)N2c1ccc(C(=O)O)c(F)c1` [Example 25, (trans)-4-(3-(2-chloro-6-cyclopropyl-benzylidene)-4-methylindolin-2-on-1-yl)-2-fluoro-benzoic acid], the concentration for half-maximal inhibition (IC50) lay within 100 to 1000 nM.

Turning to `Cc1cccc2c1/C(=C/c1c(Cl)cccc1C(F)(F)F)C(=O)N2c1ccc(C(=O)O)c(O)c1` [Example 6, (trans)-4-(3-(2-chloro-6-(trifluoromethyl)-benzylidene)-4-methylindolin-2-on-1-yl)-2-hydroxybenzoic acid], the IC50 under setting [1] was below 100 nM. The same measure, in the same setting: then `Cc1cccc2c1/C(=C/c1c(F)cccc1Cl)C(=O)N2c1ccc(C(=O)O)c(O)c1` [Example 9], with below 100 nM; and `Cc1cccc2c1/C(=C/c1c(Cl)cccc1C1CCC1)C(=O)N2c1ccc(C(=O)O)cc1` [Example 34], with below 100 nM. In the case of `O=C(O)c1ccc(N2C(=O)/C(=C\c3c(Cl)cccc3C3CC3)c3c(Cl)cccc32)cc1O` [Example 14, 4-(3-(2-chloro-6-cyclopropyl-benzylidene)-4-chloro-indolin-2-on-1-yl)-2-hydroxybenzolic acid], the IC50 lay within 100 to 1000 nM. Consider `COc1cccc2c1/C(=C/c1c(Cl)cccc1C1CC1)C(=O)N2c1ccc(C(=O)O)cc1` [Example 30], for which the IC50 under setting [1] is below 100 nM. The compound `Cc1cccc2c1/C(=C/c1c(Cl)cccc1C1CCC1)C(=O)N2c1ccc(C(=O)O)c(O)c1` [Example 35] returned a half-inhibitory concentration (IC50) of 100 to 1000 nM. As for `CCCc1cccc(Cl)c1/C=C1\C(=O)N(c2ccc(C(=O)O)cc2)c2cccc(F)c21` [Example 20A, (trans)-4-(3-(2-chloro-6-n-propyl-benzylidene)-4-fluoro-indolin-2-on-1-yl)-benzoic acid], the IC50 lay in the range of 100 to 1000 nM. The compound `O=C(O)c1ccc(N2C(=O)/C(=C/c3c(Cl)cccc3C3CC3)c3c(F)cccc32)cc1O` [Example 21B, (cis)-4-(3-(2-chloro-6-cyclopropyl-benzylidene)-4-fluoro-indolin-2-on-1-yl)-2-hydroxy-benzoic acid] gave a 50% inhibitory concentration (IC50) of 100 to 1000 nM.

`Cc1cccc2c1/C(=C\c1c(Cl)cccc1C1CC1)C(=O)N2c1ccc(C(=O)O)cc1` [Example 2B, (trans)-4-(3-(2-chloro-6-cyclopropyl-benzylidene)-4-methylindolin-2-on-1-yl)-benzoic acid] came in with a concentration for half-maximal inhibition (IC50) of 100 to 1000 nM. In the case of `O=C(O)c1ccc(N2C(=O)/C(=C\c3c(Cl)cccc3C3CC3)c3c(F)cccc32)cc1` [Example 16A, (trans)-4-(3-(2-chloro-6-cyclopropyl-benzylidene)-4-fluoro-indolin-2-on-1-yl)-benzoic acid], the IC50 under setting [1] was below 100 nM.

As to `O=C(O)c1ccc(N2C(=O)/C(=C\c3c(F)cccc3F)c3c(F)cccc32)cc1` [Example 18A, (trans)-4-(3-(2,6-difluoro-benzylidene)-4-fluoro-indolin-2-on-1-yl)-benzoic acid], the half-inhibitory concentration (IC50) was in the range of 1000 to 10000 nM.
